The record followed here is patent publication US20220016080A1, “COMPOUNDS THAT SELECTIVELY AND EFFECTIVELY INHIBIT HAKAI-MEDIATED UBIQUITINATION, AS ANTI-CANCER DRUGS” (FUNDACIÓN PROFESOR NOVOA SANTOS, priority 2018, published 2022).

What all share (format): cell-based
Series [1] concerns the target T1, E3 ubiquitin-ligase Hakai (Mus musculus, UniProt Q9JIY2).
T1 construct: expressed in transfected cells; host or cells: HEK293T (293) cells, co-transfected with v-Src and HA-ubiquitin, and in A3 also with myc-E-cadherin
T1 sequence (Q9JIY2 1-491): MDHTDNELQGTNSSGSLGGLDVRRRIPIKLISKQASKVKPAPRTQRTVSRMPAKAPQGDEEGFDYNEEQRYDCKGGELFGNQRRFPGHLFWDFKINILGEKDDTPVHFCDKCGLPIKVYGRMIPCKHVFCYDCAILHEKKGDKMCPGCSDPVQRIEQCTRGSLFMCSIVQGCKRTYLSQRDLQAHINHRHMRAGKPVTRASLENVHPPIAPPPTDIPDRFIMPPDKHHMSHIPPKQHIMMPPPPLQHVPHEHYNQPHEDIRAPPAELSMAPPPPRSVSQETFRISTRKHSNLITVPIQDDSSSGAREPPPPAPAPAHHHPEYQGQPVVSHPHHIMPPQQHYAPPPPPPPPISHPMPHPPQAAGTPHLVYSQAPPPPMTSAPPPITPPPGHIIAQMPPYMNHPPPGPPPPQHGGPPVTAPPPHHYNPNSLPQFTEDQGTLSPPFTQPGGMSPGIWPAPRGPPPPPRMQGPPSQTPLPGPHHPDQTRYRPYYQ
Kind of series: Hakai-dependent ubiquitination assay in 293T cells transfected with Flag-Hakai, v-Src and HA-ubiquitin. Conditions: 293T cells transfected with Src, treated 36 h, DMSO as control. The method, then:
For ubiquitination assays, 750.000 HEK293T cells were seeded in 6-well cell culture plates and after 24 h were transfected with 0.25 μg Src, 0.75 μg Flag-Hakai, and 0.5 μg HA-ubiquitin with Lipofectamin 2000 (Invitrogen, UK). Six hours after transfection cells were treated with indicated concentrations of Hakin-1, Hakin-5 or the rest of the analogues tested for 36 h. Whole cell extracts were obtained in lysis buffer (20 mM Tris-HCl pH 7.5, 150 mM NaCl and 1% Triton X-100) containing 10 μg/ml leupeptin, 10 μg/ml aprotinin and 1 mM phenylmethanesulphonyl fluoride (PMSF), supplemented with 10 mM N-ethylmaleimide. Cells were harvested and subjected to western blotting using anti-HA antibody to detect ubiquitination.

Series [2] concerns HT-29 cells. Nature of the series: Immunofluorescence of E-cadherin, HT-29. The following applies: 48 h. The method, then:
(§1) For western blot analysis, cells were treated with the indicated inhibitors for 48 h and the whole cell extracts were obtained as described previously. Twenty micrograms of lysates were resolved on a 10% polyacrilamide SDS-PAGE followed by western blot analysis performed as previously described. For immunofluorescence assays cells were grown for 24 h on glass coverslips and treated with the indicated inhibitors for 48 h. Cells were fixed with 4% PFA for 15 min, permeabilized with 0.5% […] and incubated with E-cadherin antibody for 2 h. Coverslips were incubated with fluorescein-tagged secondary antibody (Dakopatts, Sweden) for […]. Finally coverslips were mounted with ProLong Gold antifade reagent (LifeTech, UK) and images were taken in epifluorescence microscope (Olympus) using 40× objective.

Series [3] concerns Hakai-MDCK cell lines (clone 4 and clone 11). Kind of series: MTT cell viability assay, Hakai-MDCK. The following applies: both clones of Hakai-MDCK compared to MDCK; 72 h. The method, then: (§2) For cytotoxicity assays, 1×10^4 cells were seeded per well into a 96-well plate. After 24 h cells were treated with the indicated inhibitors for 72 h and a MTT colorimetric cell viability assay was performed following manufacturer's instructions (Sigma Aldrich, St Louis, Mo.). Absorbance was measured at 570 and 630 nm using a Multiskan Plus Reader (Nanoquant Infinite M200 Tecan Trading AG, Switzerland). Dose-response curves were designed with Graph Pad Prism Software and the half-maximal inhibitory concentration (IC50) values were calculated. Represented data are the mean±SEM of at least three independent experiments with six replicates per condition.
Background: Tetrazolium dyes change colour on reduction, which living cells bring about.

Series [4] relates to HT-29 cells. Nature of the series: Western blotting of EMT markers, HT-29. The following applies: 48 h. The method, then:
as §1

The next series relates to LoVo cells. Kind of series: BrdU proliferation assay, LoVo. The following applies: 48 h. The method, then: (§3) For BrdU assays, 1×10^4 of indicated cells were plated per well into a 96-well plate. After 24 h, cells were treated with the indicated inhibitors for 48 h. Three independent experiments were plated with six replicates per each condition. Cells were treated with […] BrdU for 2 h. BrdU incorporation into newly synthesized DNA was measured using a cell proliferation colorimetric immunoassay kit according to the manufacturer's instructions (Roche, Switzerland). Results are expressed as mean±S.D. Results are represented as percentage of positive cells (mean±S.D) of three independent experiments.

The subject of series [5] is normal epithelial MDCK cell line. Kind of series: MTT cell viability assay, MDCK. Conditions: normal epithelial MDCK compared to Hakai-MDCK; 72 h. The method, then:
as §2

The next series deals with HT29 cells. Nature of the series: BrdU proliferation assay, HT29. Conditions: 48 h. The method, then:
as §3

The subject of series [6] is Hakai-transformed MDCK cells. Nature of the series: Phase-contrast cell phenotype, Hakai-MDCK. The method, then: MDCK, HEK293T, HepG2, MCF7 and ACHN cells were cultured in Dulbecco's Modified Eagles Medium (DMEM). MDCK stably expressing Hakai cells (Hakai-MDCK) were previously reported and were growth in DMEM with G418 (800 μg/ml). […] LoVo and PC-3 cells were cultured in F-12K Medium (Kaighn's Modification of Ham's F-12 Medium) and HT-29 cells in McCoy's 5a Medium Modified. 5637 cells were cultured in RPMI medium. All culture media were supplemented with 1% penicillin/streptomycin and 10% of heat-inactivated fetal bovine serum (FBS) at 37° C. in a humidified incubator with 5% CO2. Cells were monthly tested for mycoplasma contamination and used only for 1-3 months after defrosted. LoVo and HT29 cells were authenticated with the StemElite ID system (Promega). For phase-contrast images, culture cells were photographed with a Nikon Eclipse-TI microscope.

The subject of series [7] is HT-29 colon tumour cell line. Kind of series: MTT cell viability assay, HT29. The following applies: 72 h, analogues at 50-500 μM. The method, then:
as §2

As for `CC(/C=C/C(=O)O)=C\CC(O)/C(C)=C/CCC(C)C(C)O` (stereo not shown) [Hakin-5, (2E,4E,8E)-7,13-Dihydroxy-4,8,12-trimethyl-2,4,8-tetradecatrienoic acid, reference compound], the “ubiquitination mediated by Hakai (western blotting, anti-HA)” value in series [1] is given as “no effect was detected”. The “E-cadherin levels at cell-cell contacts (immunofluorescence)” value in the series with HT-29 cells [2] is “no effect”. Also, the “sensitivity to treatment (cell viability, MTT)” value in series [3] is reported as “more sensitive”; in [5], “more resistant”. In addition, the “E-cadherin levels (western blotting)” value in the series on HT-29 cells [4] is on record as “no effect”. Also, the “cell proliferation (BrdU)” value in the series with LoVo cells and in the series on HT29 cells was “no effect was seen” in each case. In addition, in series [6], the “mesenchymal phenotype (phase contrast)” value is “induction of an epithelial phenotype”.
`O=C(O)c1ccc(-n2nnnc2SCC(=O)c2ccc(Cl)s2)cc1` [Hakin A-23]: the “ubiquitination mediated by Hakai (western blotting, anti-HA)” value in series [1] was “inhibitory effect of Hakai activity”. Also, in [7], the “cytotoxicity effect (cell viability, MTT)” value is on record as “important inhibitory response”.
